Target: T1, recombinant human IDO1 enzyme (Homo sapiens, UniProt P14902)
T1 construct: purchased NTRC NTRC-hlDO-10K
Assay: In vitro hIDO1 enzyme activity test (NFK Green fluorescence)
Assay type: biochemical
Conditions: recombinant human IDO1, L-tryptophan substrate, pH 6.5
Procedure: The change of NFK production was detected by using the NFK Green™ fluorescent molecule, which is the metabolite of the IDO1 enzyme, and the IC50 value of the compound was used as an index, to evaluate the inhibitory effect of the compound on the recombinant human IDO1 enzyme.
IDO1 Enzyme Activity Assay Kit, NTRC # NTRC-hlDO-10K;
The compound was diluted to 1 mM in DMSO, and then diluted 3-fold in duplicate wells, with 10 gradients. 48 μL of 50 mM phosphate buffer (pH 6.5) was transferred to the compound plate via Bravo automated liquid handling platform. 2 μL of the diluted solution of the compound in DMSO was then added and mixed, followed by transferring 10 μL therein to an enzyme reaction plate.
The IDO1 enzyme was diluted to 20 nM in the reaction buffer (50 mM phosphate buffer pH 6.5, 0.1% Tween-20, 2% glycerol, 20 mM ascorbic acid, 20 μg/mL catalase and 20 μM methylene blue), and 20 μL of the solution was transferred to an enzyme reaction plate and incubated at 23° C. for 30 min. The reaction was started by adding 10 μL of 400 μM L-type tryptophan substrate and incubated at 23° C. for 90 min. 10 μL of NFK Green™ fluorescent dye was added, and the plate was sealed with the sealing film, incubated at 37° C. for 4 h, and then read on Envision Multimode Plate Reader (Ex 400 nm/Em 510 nm).
The control wells with the IDO1 enzyme but no compound was set as 0% inhibition, and the control wells without the IDO1 enzyme was set as 100% inhibition, and the IC50 value of the compound was calculated by analyzing the data with XLFit 5.

T1 sequence (P14902 whole entry): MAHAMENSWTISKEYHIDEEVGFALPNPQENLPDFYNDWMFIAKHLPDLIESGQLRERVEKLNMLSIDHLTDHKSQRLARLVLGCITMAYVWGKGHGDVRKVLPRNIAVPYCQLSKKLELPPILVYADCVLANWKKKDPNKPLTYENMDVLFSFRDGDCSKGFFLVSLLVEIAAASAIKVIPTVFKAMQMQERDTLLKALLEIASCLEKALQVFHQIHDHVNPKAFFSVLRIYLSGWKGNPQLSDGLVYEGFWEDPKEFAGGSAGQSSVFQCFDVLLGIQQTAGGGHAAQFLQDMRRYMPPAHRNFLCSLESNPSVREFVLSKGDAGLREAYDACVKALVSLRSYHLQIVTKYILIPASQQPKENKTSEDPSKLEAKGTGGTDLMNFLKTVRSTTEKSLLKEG

| Structure (SMILES) | IC50 |
| --- | --- |
| OC(CC1c2nn(C(F)(F)F)cc2-c2cncn21)C1CCCCC1 (single isomer, unassigned) [Example 1, 1-cyclohexyl-2-(2-(trifluoromethyl)-2,8-dihydroimidazo[1′,5′:1,5]pyrrolo[3,4-c]pyrazol-8-yl)ethanol] | > 10 µM |
| OC(CC1c2nn(C(F)(F)F)cc2-c2cncn21)C1CCCCC1 (single isomer, unassigned) [Example 2, 1-cyclohexyl-2-(2-(trifluoromethyl)-2,8-dihydroimidazo[1′,5′:1,5]pyrrolo[3,4-c]pyrazol-8-yl)ethanol] | > 10 µM |
| OC(CC1c2nn(C(F)(F)F)cc2-c2cncn21)C1CCCCC1 (single isomer, unassigned) [Example 3, 1-cyclohexyl-2-(2-(trifluoromethyl)-2,8-dihydroimidazo[1′,5′:1,5]pyrrolo[3,4-c]pyrazol-8-yl)ethanol] | > 10 µM |
| OC(CC1c2sccc2-c2cncn21)C1CCCCC1 (single isomer, unassigned) [Example 5, cyclohexyl-2-(8H-thieno[3′,2′:3,4]pyrrolo[1,2-c]imidazol-8-yl)ethanol] | 5.03 µM |
| OC(CC1c2sccc2-c2cncn21)C1CCCCC1 (single isomer, unassigned) [Example 6, cyclohexyl-2-(8H-thieno[3′,2′:3,4]pyrrolo[1,2-c]imidazol-8-yl)ethanol] | 9.67 µM |
| OC(CC1c2sccc2-c2cncn21)C1CCCCC1 (single isomer, unassigned) [Example 8, cyclohexyl-2-(8H-thieno[3′,2′:3,4]pyrrolo[1,2-c]imidazol-8-yl)ethanol] | 0.0648 µM |
| c1cc2c(s1)C(C1CCCCC1)n1cncc1-2 (single isomer, unassigned) [Example 13, 8-cyclohexyl-8H-thieno[3,4]pyrrolo[1,5-a]imidazole] | > 10 µM |
| c1cc2c(s1)C(CC1CCCCC1)n1cncc1-2 (single isomer, unassigned) [Example 15, 8-(cyclohexylmethyl)-8H-thieno[3,4]pyrrolo[1,5-a]imidazole] | 5.22 µM |
| c1cc2c(s1)C(COC1CCCCC1)n1cncc1-2 (single isomer, unassigned) [Example 17, 8-((cyclohexyloxy)methyl)-8H-thieno[3′,2′:3,4]pyrrolo[1,2-c]imidazole] | 0.338 µM |
| c1cc2c(s1)C(COC1CCCCC1)n1cncc1-2 (single isomer, unassigned) [Example 18, 8-((cyclohexyloxy)methyl)-8H-thieno[3′,2′:3,4]pyrrolo[1,2-c]imidazole] | > 10 µM |
| Fc1cc2c(s1)C(CCC1CCCCC1)n1cncc1-2 (single isomer, unassigned) [Example 19, 8-(2-cyclohexylethyl)-2-fluoro-8H-thieno[3′,2′:3,4]pyrrolo[1,2-c]imidazole] | > 10 µM |
| Fc1cc2c(s1)C(CCC1CCCCC1)n1cncc1-2 (single isomer, unassigned) [Example 20, 8-(2-cyclohexylethyl)-2-fluoro-8H-thieno[3′,2′:3,4]pyrrolo[1,2-c]imidazole] | 0.586 µM |
| FC1(F)CCC(CCC2c3sccc3-c3cncn32)CC1 (single isomer, unassigned) [Example 21, 8-(2-(4,4-difluorocyclohexyl)ethyl)-8H-thieno[3′,2′:3,4]pyrrolo[1,2-c]imidazole] | 9.16 µM |
| O=C1CC[C@H]2C[C@@H]([C@@H](O)CC3c4sccc4-c4cncn43)CCN12 (single isomer, unassigned) [Example 26] | > 10 µM |
| O=C1CC[C@H]2C[C@@H]([C@@H](O)CC3c4sccc4-c4cncn43)CCN12 (single isomer, unassigned) [Example 27] | 0.869 µM |
| c1cc2c(s1)C(C1CCCOC1)n1cncc1-2 (single isomer, unassigned) [Example 33, 8-(tetrahydro-2H-pyran-3-yl)-8H-thieno[3′,2′:3,4]pyrrolo[1,2-c]imidazole] | > 10 µM |

| Structure (SMILES) | IC50 |
| --- | --- |
| c1cc2c(s1)C(C1CCCOC1)n1cncc1-2 (single isomer, unassigned) [Example 34, 8-(tetrahydro-2H-pyran-3-yl)-8H-thieno[3′,2′:3,4]pyrrolo[1,2-c]imidazole] | > 10 µM |
| c1cc2c(s1)C(C1CCCOC1)n1cncc1-2 (single isomer, unassigned) [Example 35, 8-(tetrahydro-2H-pyran-3-yl)-8H-thieno[3′,2′:3,4]pyrrolo[1,2-c]imidazole] | 2.81 µM |
| c1cc2c(s1)C(C1CCCOC1)n1cncc1-2 (single isomer, unassigned) [Example 36, 8-(tetrahydro-2H-pyran-3-yl)-8H-thieno[3′,2′:3,4]pyrrolo[1,2-c]imidazole] | 2.43 µM |
| c1cc2c(s1)C(C1CCOCC1)n1cncc1-2 (single isomer, unassigned) [Example 37, 8-tetrahydropyran-4-8H-thieno[3,4]pyrrolo[1,5-a]imidazole] | 2.4 µM |
| c1cc2c(s1)C(C1CCOCC1)n1cncc1-2 (single isomer, unassigned) [Example 38, 8-tetrahydropyran-4-8H-thieno[3,4]pyrrolo[1,5-a]imidazole] | > 10 µM |
| FC1(F)CCC([C@@H]2c3sccc3-c3cncn32)CC1 (single isomer, unassigned) [Example 40] | > 10 µM |
| OCC1(C2c3sccc3-c3cncn32)CCCCC1 (single isomer, unassigned) [Example 43, [1-(8H-thieno[3,4]pyrrolo[1,5-a]imidazol-8-yl)cyclohexyl]methanol] | > 10 µM |
| c1cc2c(s1)C(C1CCC3(CC1)CC3)n1cncc1-2 (single isomer, unassigned) [Example 44, 8-spiro[2.5]octan-6-yl-8H-thieno[3,4]pyrrolo[1,5-a]imidazole] | > 10 µM |
| c1cc2c(s1)C(C1CCC3(CC1)CC3)n1cncc1-2 (single isomer, unassigned) [Example 45, 8-spiro[2.5]octan-6-yl-8H-thieno[3,4]pyrrolo[1,5-a]imidazole] | 3.83 µM |
| c1cc2c(s1)C(C13CCC(CC1)CC3)n1cncc1-2 (single isomer, unassigned) [Example 48, 8-(4-bicyclo[2.2.2]octyl)-8H-thieno[3,4]pyrrolo[1,5-a]imidazole] | 0.518 µM |
| c1cc2c(s1)C(C13CCC(CC1)CC3)n1cncc1-2 (single isomer, unassigned) [Example 49, 8-(4-bicyclo[2.2.2]octyl)-8H-thieno[3,4]pyrrolo[1,5-a]imidazole] | > 10 µM |
| OC1CCCCC1C1c2sccc2-c2cncn21 (single isomer, unassigned) [Example 50, 2-(8H-thieno[3,4]pyrrolo[1,5-a]imidazol-8-yl)cyclohexanol] | > 10 µM |
| OC1CCCCC1C1c2sccc2-c2cncn21 (single isomer, unassigned) [Example 51, 2-(8H-thieno[3,4]pyrrolo[1,5-a]imidazol-8-yl)cyclohexanol] | > 10 µM |
| OC1CCCCC1C1c2sccc2-c2cncn21 (single isomer, unassigned) [Example 52, 2-(8H-thieno[3,4]pyrrolo[1,5-a]imidazol-8-yl)cyclohexanol] | 0.676 µM |
| c1ccc2c(c1)CCC(C1c3sccc3-c3cncn31)C2 (single isomer, unassigned) [Example 54, 8-tetrahydronaphthalen-2-yl-8H-thieno[3,4]pyrrolo[1,5-a]imidazole] | > 10 µM |
